Measured values: patent US10253002B2, “Compounds and methods of treating infections” (Neoculi Pty Ltd., priority 2013, dated 2019)
Values after ≈ are worked out from the molar mass of the structure shown. Values joined by “and” are separate entries in the source; they are usually repeats but may differ in a detail not shown here. Equal values may be shown once. One block for each compound: values may come before it.

Legend:
S. pneumoniae isolates [1] = test: Disk diffusion susceptibility (CLSI/EUCAST), Example 5; type: cell-based, Streptococcus pneumoniae
Procedure, shortened: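 Susceptibility to 12 antimicrobials was categorised (S/I/R) using CLSI breakpoints from zones of complete inhibition, read thrice to the nearest millimetre with the mode taken. Incubation was 16–24 h, 37 °C, 5% CO2.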

[2] = system: Staphylococcus aureus T3-129 / Staphylococcus spp. MK1; test: Synergy studies, checkerboard method (FIC index); type: cell-based; settings: S. aureus strain T3-29
S. pneumoniae isolates [3] = test: Micro-broth dilution MIC, Example 5; type: cell-based, Streptococcus pneumoniae; settings: Streptococcus pneumoniae, isolate D39; Table 28
Method: For all in vitro assays, fresh pneumococcal isolates were grown overnight (O/N) on horse blood agar (HBA) plates (39 g/L Columbia blood agar base [Oxoid] 5% [v/v] defribinated horse blood [Oxoid] at 37° C. with 5% supplemented CO2). Mueller-Hinton blood agar with 5% defibrinated sheep blood (MHSBA Roseworthy Media and Blood Service) was used for disk diffusion analysis as directed by Clinical Laboratory Standards Institute (CLSI) standards. Pneumococci were routinely grown in broth consisting of 4% lysed horse blood (LHB) with Cation Adjusted Mueller Hinton Broth (CAHMB, [Difco]) at 37° C. with 5% supplemented CO2. […] Isolates were stored in HSB at −80° C.
(§1) [Micro-broth dilutions and 96 well trays are prepared by the following method: 90 μL of 4% LHB:CAMHB is aliquotted into all wells using a multichannel pipette. 90 μL of working antimicrobial stocks were no serial diluted down the tray by a 1:2 dilution. Negative broth controls and dilution control were taken into account when planning the set up of a 96 well tray.] 10 μL of bacterial suspension was then added to the appropriate wells in the 96 well tray. Appropriate positive (no antimicrobial), negative (no antimicrobial or bacteria) and negative dilution (a serial dilution control of antimicrobial and broth) controls were included in each assay. […] The MBC was determined by a 99.95% inhibition of S. pneumoniae, taking into account the dilution factor. MICs and MBCs were determined in quadruplicate and the mode was taken as the representative value. The MIC50, MIC90 and MIC range and MBC50, MBC90 and MBC range were determined according to CLSI standards. The MIC50 and MIC90, or MBC50 and MBC90, are defined by the lowest concentrations which, when all the MICs and MBCs of the isolates are arranged from lowest to highest, inhibited the 50th and 90th percentile of the total amount of isolates, respectively.

S. pneumoniae isolates [4] = test: MBC, Example 5; type: cell-based, Streptococcus pneumoniae; settings: Streptococcus pneumoniae, isolate D39; Table 28; read-out: MBC
Method: as §1

[5] = system: S. aureus isolates (HA-MRSA, CA-MRSA, methicillin-susceptible staphylococci); test: Kirby-Bauer disc diffusion resistotyping, Example 4; type: cell-based, Staphylococcus aureus; settings: for Total isolates resistant (Kirby-Bauer disc diffusion): all isolates (n = 30)
Procedure, shortened: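 CLSI Kirby-Bauer disc diffusion on Mueller-Hinton agar. Overnight SBA cultures (37 °C) were suspended in saline and adjusted to 0.5 McFarland before spreading. Antibiotic discs were read after 24 h at 37 °C.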

S. aureus ATCC29213 = test: Broth microdilution MIC, Example 7 (NCL analogues), Table 42; type: cell-based, Staphylococcus aureus; settings: S. aureus ATCC29213, 24 hours
Escherichia coli = test: Broth microdilution MIC, Example 7 (NCL812 and analogues); type: cell-based; settings: for MIC (μg/ml) at 24 hours E. coli ATCC25922: E. coli ATCC25922, 24 hours
Pseudomonas aeruginosa = test: as above; type: cell-based; settings: for MIC (μg/ml) at 24 hours Pseudomonas #008: Pseudomonas #008, 24 hours
E. faecalis #32 = test: Broth microdilution MIC, Example 7 (NCL analogues), Table 42; type: cell-based, Enterococcus faecalis; settings: E. faecalis #32, 24 hours
VRE = test: Broth microdilution MIC, Example 7 (NCL812 and analogues); type: cell-based, Enterococcus spp.
Procedure, shortened: (§2)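 Turbidity read visually and then at 600 nm defined the MIC (μg/ml), comparing drug-containing wells with a growth-control well lacking antimicrobial. Testing followed the CLSI broth microdilution method, in duplicate, using two strains per organism group.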

[6] = system: Gram-negative bacteria (E. coli and Pseudomonas aeruginosa); test: Testing of NCL812 analogues, Gram-negative antibacterial activity; type: cell-based; settings: MIC testing
Method: Minimum inhibitory concentrations (μg/ml) were determined using the broth microdilution method recommended by the Clinical and Laboratory Standards Institute (CLSI). MIC breakpoints were determined by visual assessment and then confirmed using an ELISA plate reader, measuring absorbance levels at 600 nm. Bacterial growth (turbidity) in the wells with antimicrobial was compared with the amount of growth (turbidity) in the growth-control well (containing no antimicrobial). All isolates were tested in duplicate, if there was a difference of greater than one two-fold dilution in the results, the test was repeated a third time. The purity of the isolates was closely monitored during testing by subculturing the prepared bacterial inoculum onto SBA (sheep blood agar). The MICs of the control strains for the antimicrobial ampicillin were determined for each testing run as an internal quality control. The MIC50, […] and MIC range (minimum and maximum) were calculated for each of the bacterial groups.
MICs were determined against two MRSA strains, two VRE strains and one strain each of E. coli and Pseudomonas aeruginosa.

MRSA = test: Broth microdilution MIC, Example 7 (NCL812 and analogues); type: cell-based, Staphylococcus aureus
Procedure, shortened: as §2

[7] = 24 hours, 1st and 2nd replicate rows

MIC (μg/ml) at 24 hours S. aureus ATCC29213 (S. aureus ATCC29213): >64 µg/mL
MIC (μg/ml) at 24 hours E. coli ATCC25922 (Escherichia coli): >64 µg/mL
MIC (μg/ml) at 24 hours Pseudomonas #008 (Pseudomonas aeruginosa): >64 µg/mL
MIC (μg/ml) at 24 hours E. faecalis #32 (E. faecalis #32): >64 µg/mL
Compound: C/C(=N\Nc1cc(N/N=C(\C)c2ccc(Cl)cc2)ncn1)c1ccc(Cl)cc1.Cl [NCL 185]

MIC (μg/ml) at 24 hours S. aureus ATCC29213 (S. aureus ATCC29213): >64 µg/mL
MIC (μg/ml) at 24 hours E. coli ATCC25922 (Escherichia coli): >64 µg/mL
MIC (μg/ml) at 24 hours Pseudomonas #008 (Pseudomonas aeruginosa): >64 µg/mL
MIC (μg/ml) at 24 hours E. faecalis #32 (E. faecalis #32): >64 µg/mL
Compound: Clc1ccc(/C=N/Nc2cc(N/N=C/c3ccc(Cl)cc3)ncn2)cc1 [NCL 181]

MIC (μg/ml) at 24 hours S. aureus ATCC29213 (S. aureus ATCC29213): >64 µg/mL
MIC (μg/ml) at 24 hours E. coli ATCC25922 (Escherichia coli): >64 µg/mL
MIC (μg/ml) at 24 hours Pseudomonas #008 (Pseudomonas aeruginosa): >64 µg/mL
MIC (μg/ml) at 24 hours E. faecalis #32 (E. faecalis #32): >64 µg/mL
Compound: Cl.Clc1ccc(/C=N/Nc2cc(N/N=C/c3ccc(Cl)cc3)ncn2)cc1 [NCL 187]

MIC (μg/ml) at 24 hours S. aureus ATCC29213 (S. aureus ATCC29213): >64 µg/mL
MIC (μg/ml) at 24 hours E. coli ATCC25922 (Escherichia coli): >64 µg/mL
MIC (μg/ml) at 24 hours Pseudomonas #008 (Pseudomonas aeruginosa): >64 µg/mL
MIC (μg/ml) at 24 hours E. faecalis #32 (E. faecalis #32): >64 µg/mL
Compound: C/C(=N\Nc1cc(N/N=C(\C)c2ccc(Cl)cc2)ncn1)c1ccc(Cl)cc1 [NCL 178]

More lines, now with the values behind:

Compound: CC[C@H]1OC(=O)[C@H](C)[C@@H](O[C@H]2C[C@@](C)(OC)[C@@H](O)[C@H](C)O2)[C@H](C)[C@@H](O[C@@H]2O[C@H](C)C[C@H](N(C)C)[C@H]2O)[C@](C)(O)C[C@@H](C)C(=O)[C@H](C)[C@@H](O)[C@]1(C)O [Erythromycin]
disk diffusion zone diameter (S. pneumoniae isolates [1]; A66.1): 33 mm
disk diffusion zone diameter (S. pneumoniae isolates [1]; D39): 35 mm
disk diffusion zone diameter (S. pneumoniae isolates [1]; EF3030): 30 mm
disk diffusion zone diameter (S. pneumoniae isolates [1]; L82016): 29 mm
disk diffusion zone diameter (S. pneumoniae isolates [1]; P9): 32 mm
disk diffusion zone diameter (S. pneumoniae isolates [1]; P21): 35 mm
disk diffusion zone diameter (S. pneumoniae isolates [1]; TIGR4): 34 mm
disk diffusion zone diameter (S. pneumoniae isolates [1]; WCH16): 34 mm
disk diffusion zone diameter (S. pneumoniae isolates [1]; WCH43): 29 mm
disk diffusion zone diameter (S. pneumoniae isolates [1]; WCH46): 27 mm
disk diffusion zone diameter (S. pneumoniae isolates [1]; WCH57): 41 mm
disk diffusion zone diameter (S. pneumoniae isolates [1]; WCH77): 37 mm
disk diffusion zone diameter (S. pneumoniae isolates [1]; WCH86): 30 mm
disk diffusion zone diameter (S. pneumoniae isolates [1]; WCH89): 35 mm
disk diffusion zone diameter (S. pneumoniae isolates [1]; WCH92): 28 mm
disk diffusion zone diameter (S. pneumoniae isolates [1]; WCH137): 34 mm
disk diffusion zone diameter (S. pneumoniae isolates [1]; WCH158): 34 mm
disk diffusion zone diameter (S. pneumoniae isolates [1]; WCH184): 10 mm
disk diffusion susceptibility category (S. pneumoniae isolates [1]; WCH184 (Table 19)): R
disk diffusion zone diameter (S. pneumoniae isolates [1]; WCH211): 33 mm
disk diffusion zone diameter (S. pneumoniae isolates [1]; WU2): 34 mm
Resistance status to Erythromycin (S. pneumoniae isolates [1]; isolate D39): Sensitive
FICI ([2]; FIC index of antibiotic with NCL812): 0.75 and 0.562 and 0.5 and 0.531
Antibiotic MIC Alone ([2]; antibiotic alone): 0.25 mg/L
Result (interaction with NCL812) ([2]; antibiotic with NCL812): NE (No effect (NE) was defined as 0.5<FICI<4)
MIC (S. pneumoniae isolates [3]): 0.00275 mg/L (≈ 0.00375 µM)
MBC (S. pneumoniae isolates [4]): 0.00275 mg/L (≈ 0.00375 µM)
isolates resistant (Kirby-Bauer disc diffusion) ([5]; CA-MRSA (n = 10)): 100.00%
isolates resistant (Kirby-Bauer disc diffusion) ([5]; HA-MRSA (n = 10)): 80.00%
isolates resistant (Kirby-Bauer disc diffusion) ([5]; Methicillin-susceptible staphylococci (n = 10)): 40.00%
Total isolates resistant (Kirby-Bauer disc diffusion) [5]: 73.33%
Total isolates resistant (Kirby-Bauer disc diffusion) ([5]; listed as erythromycin): 73.33%

Compound: OC/C(=N\Nc1cc(N/N=C(\CO)c2ccc(Cl)cc2)ncn1)c1ccc(Cl)cc1 [NCL 180]
MIC (μg/ml) at 24 hours S. aureus ATCC29213 (S. aureus ATCC29213): >64 µg/mL
MIC (μg/ml) at 24 hours E. coli ATCC25922 (Escherichia coli): >64 µg/mL
MIC (μg/ml) at 24 hours Pseudomonas #008 (Pseudomonas aeruginosa): >64 µg/mL
MIC (μg/ml) at 24 hours E. faecalis #32 (E. faecalis #32): 64 µg/mL (≈ 144 µM)

Compound: Cl.N=C(N)N/N=C/c1ccc(C(F)(F)F)cc1 [NCL041]
activity against VRE among analogues (VRE; MIC testing, two VRE strains): greatest activity
MIC (μg/ml) at 24 hours, VRE 1 (VRE; isolate VRE 1, 24 hours, 1st and 2nd replicate rows): 64 µg/mL
MIC (μg/ml) at 24 hours, VRE 2 (VRE; isolate VRE 2, 24 hours, 1st and 2nd replicate rows): 64 µg/mL
MIC (μg/ml) at 24 hours, E. coli (Escherichia coli; [7]): 128 µg/mL and 64 µg/mL
level of Gram-negative antibacterial activity among analogues [6]: highest level of Gram-negative antibacterial activity
MIC (μg/ml) at 24 hours, P. aeruginosa (Pseudomonas aeruginosa; [7]): 128 µg/mL
activity against MRSA among analogues (MRSA; MIC testing, two MRSA strains): greatest activity
MIC (μg/ml) at 24 hours, MRSA 1 (MRSA; isolate MRSA 1, 24 hours, 1st and 2nd replicate rows): 64 µg/mL
MIC (μg/ml) at 24 hours, MRSA 2 (MRSA; isolate MRSA 2, 24 hours, 1st and 2nd replicate rows): 64 µg/mL

Compound: CC(Nc1cnc(NC(C)c2ccc(Cl)cc2)cn1)c1ccc(Cl)cc1 (centres unmarked) [NCL 186]
MIC (μg/ml) at 24 hours S. aureus ATCC29213 (S. aureus ATCC29213): >64 µg/mL
MIC (μg/ml) at 24 hours E. coli ATCC25922 (Escherichia coli): >64 µg/mL
MIC (μg/ml) at 24 hours Pseudomonas #008 (Pseudomonas aeruginosa): >64 µg/mL
MIC (μg/ml) at 24 hours E. faecalis #32 (E. faecalis #32): >64 µg/mL
